Assay results as given in patent US12000833B2, “Marker for predicting the sensitivity to PI3K inhibitors” (INSERM (INSTITUT NATIONAL DE LA SANTE ET DE LA RECHERCHE …, priority 2017, dated 2024).

Experiments:
[1] = test system: phosphorylation of Akt; assay: Serum (FBS)-stimulated phosphorylation of Akt and downstream effectors in Capan-1 cells; format: cell-based, human; conditions: Capan-1, after 10 min stimulation with serum
Procedure: Light amino acid-labelled and heavy amino acid-labelled Capan-1 cells (respectively called thereafter “light” and “heavy” cells) were washed twice with phosphate buffer saline (PBS; SIGMA; D8537), trypsined (GE Healthcare; L11-002) and plated at a concentration of 2.5.10^6 cells in a 14.4 cm-diameter dish (Dutscher, 055063). After 48 h, cells were serum-starved during 16 h, over-night. Light and heavy cells were pre-treated respectively with inhibitors or their accordingly diluted vehicule (DMSO) (for drug description and used concentration) during 1 h, then stimulated or not for 10 min or 24 h with 2% dialysed FBS. After 10 min and 24 h of FBS stimulation, heavy cells and light cells were maintained on ice, washed three times with cold PBS and lysed.
(§1) In pancreatic cancer, PI3K signalling is associated with a poor prognosis. […] However, this was not always coupled to a significant increase in the phosphorylation levels of canonical targets, pPRAS40 or pS6K, in all patients (data not shown), emphasizing the importance of other signalling targets downstream PI3Ks. Long-term inhibition of a core signal node is believed to induce an adaptive modification of the entire signal network. We tested if long-term inhibition of each PI3K isoforms induces a differential change in pancreatic cancer cell adaptation. To answer this question, we devise a strategy to globally identify this adaptive response focusing on phospho-site regulated signalling pathways (data not shown). […] Serum, which consist of a combination of RTK and GPCR stimuli mimicking physiopathological signalling, induces after 10 min a significant activation of class I PI3Ks as assessed by the phosphorylation of Akt and known downstream effectors PRAS40, S6K, S6 (data not shown). […] We thus chose these stimulation conditions to identify differential phosphoproteome across time in response to three PI3K iso form-selective drugs after SILAC metabolic labelling and enrichment in trypsine-based phosphopeptides by TiO2 beads allowing a robust S/T/Y phosphorylation quantification of thousands of proteins.

[2] = test system: phosphorylation of Akt; assay: RTK-driven (EGF) or GPCR-driven (LPA) short-term phosphorylation of Akt; format: cell-based, human; conditions: data not shown
Description: as §1

[3] = test system: metastatic pancreatic cancer; conditions: cited from earlier work
[4] = monotherapy, gemcitabine-resistant metastatic pancreatic cancer patient

Which “pS473 and pT308Akt levels” value [1] does the source give for `Cc1nc(NC(=O)N2CCC[C@H]2C(N)=O)sc1-c1csc(C(C)(C)C)n1` [A66] here?
Its value is “significantly inhibited”.

And the “RTK-driven (EGF) short-term phosphorylation of Akt” value ([2]; EGF stimulation)?
The value was “inhibited”.

With `Cc1cc(C(C)Nc2ccccc2)c2nc(N3CCOCC3)cc(=O)n2c1` (centres unmarked) [TGX-221] as the compound, how does the “pS473 and pT308Akt levels” value [1] read?
The value was “significantly inhibited”.

For `Nc1ccn([C@@H]2O[C@H](CO)[C@@H](O)C2(F)F)c(=O)n1` [gemcitabine], which patient survival ([3]; standard of line chemotherapy, pancreatic cancer patients) is on record?
Its patient survival is “increases their survival of only a few weeks”.

With `O=C1NC(=O)/C(=C/c2ccc(-c3ccc(F)cc3O)o2)S1` [AS-252424] as the compound, how does the “pS473 and pT308Akt levels” value [1] read?
Its value is “significantly inhibited”.

And the “GPCR-driven (LPA) short-term phosphorylation of Akt” value ([2]; LPA stimulation)?
Its value is “inhibited”.

For `CO[C@H]1C[C@@H]2CC[C@@H](C)[C@@](O)(O2)C(=O)C(=O)N2CCCC[C@H]2C(=O)O[C@H]([C@H](C)C[C@@H]2CC[C@@H](OCCO)[C@H](OC)C2)CC(=O)[C@H](C)/C=C(\C)[C@@H](O)[C@@H](OC)C(=O)[C@H](C)C[C@H](C)/C=C/C=C/C=C/1C` [RAD001], which clinical action [3, 4] is on record?
Its clinical action is “only a minimal clinical action”.

And the tolerability [3, 4]?
Its tolerability is “well tolerated”.
